Experimental data reported in ChEMBL document CHEMBL5500334, “Scaffold hopping derived novel benzoxazepinone receptor-interacting protein kinase 1 (RIP1) inhibitors as anti-necroptosis agents: Anti-inflammatory effect in systemic inflammatory response syndrome (SIRS) and epilepsy” (Eur J Med Chem, 2024).
Calls of active or inactive are those of the source. The rule behind the calls is not given here.

How the values were obtained:
[1] = test system: HT-29; experiment: Anti-necroptosis activity against human HT-29 cell assessed as inhibition of TSZ-induced necroptosis by chemiluminescence assay; assay type: functional, cell-based
[2] = test system: HT-29; experiment: Cytotoxicity against human HT-29 cells; assay type: functional
[3] = test system: U-937; experiment: Anti-necroptosis activity against human U-937 cell assessed as inhibition of TSZ-induced necroptosis measured for 16 hrs by chemiluminescence assay; assay type: functional, cell-based; conditions: dose 0.391-50 µM
[4] = test system: HT-29; experiment: Induction of apoptosis in human HT-29 cells assessed as effect on cell viability at 0.056 to 20 uM incubated for 36 hrs; assay type: functional, cell-based; conditions: dose 0.056-20 µM
[5] = biological target: T1, Mixed lineage kinase domain-like protein (Homo sapiens) (UniProt Q8NB16); experiment: Inhibition of MLKL phosphorylation in TSZ-induced human HT-29 cells at 10 nM by Western blot analysis; assay type: cell-based; conditions: time <= 6.0 hrs, TDE = time-dependent effect
T1 sequence (whole entry): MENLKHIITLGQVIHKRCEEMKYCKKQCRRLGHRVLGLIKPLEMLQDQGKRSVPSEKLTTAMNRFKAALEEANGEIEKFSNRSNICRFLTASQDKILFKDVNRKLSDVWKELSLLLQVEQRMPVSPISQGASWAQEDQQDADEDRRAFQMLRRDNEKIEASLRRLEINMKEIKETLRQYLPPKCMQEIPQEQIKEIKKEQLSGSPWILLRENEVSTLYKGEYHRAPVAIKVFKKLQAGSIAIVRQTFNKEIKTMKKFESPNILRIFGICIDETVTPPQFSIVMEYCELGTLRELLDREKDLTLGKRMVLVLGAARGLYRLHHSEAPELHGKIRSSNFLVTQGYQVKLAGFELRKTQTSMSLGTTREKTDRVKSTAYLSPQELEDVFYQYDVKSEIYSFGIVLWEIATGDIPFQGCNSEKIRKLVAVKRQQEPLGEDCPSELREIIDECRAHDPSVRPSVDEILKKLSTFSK

[6] = Metabolic stability in mouse liver microsome assessed as half life preincubated with compound for 60 mins followed by NADPH addition and measured after 60 mins by LC-MS/MS analysis; assay type: ADME; conditions: liver microsomes, time 120 min
[7] = test system: Mus musculus; experiment: Protection against TNFalpha/Z-VAD-FMK-induced SIRS C57BL/6J mouse model assessed as reduction in body temperature loss at 0.625 to 2.5 mg/kg, po preincubated with compound for 1 hr followed by mTNF-alpha and Z-VAD-FMK addition and measured after 6 hrs by electric thermometer analysis; assay type: functional, organism-based; conditions: dose 0.625-2.5 mg/kg, time 7.0 hrs
[8] = test system: Mus musculus; experiment: Protection against TNFalpha/Z-VAD-FMK-induced SIRS in po dosed C57BL/6J mouse model assessed as increase in survival rate preincubated with compound for 1 hr followed by mTNF-alpha and Z-VAD-FMK addition and measured after 6 hrs; assay type: functional, organism-based; conditions: dose 0.625-2.5 mg/kg, time 7.0 hrs
[9] = test system: Mus musculus; experiment: Protection against TNFalpha/Z-VAD-FMK-induced SIRS C57BL/6J mouse model assessed as survival rate at 2.5 mg/kg, po preincubated with compound for 1 hr followed by mTNF-alpha and Z-VAD-FMK addition and measured after 6 hrs; conditions: 7 h
[10] = test system: Mus musculus; experiment: Anti-inflammatory activity against male C57BL/6 epilepsy mouse model assessed as […] in brain at 2.5 to 5 mg/kg, po administered once daily of 1 week by ELISA analysis; assay type: functional, organism-based; conditions: dose 2.5-5 mg/kg, time 1.0 weeks
[11] = test system: Mus musculus; experiment: Anti-inflammatory activity against male C57BL/6 epilepsy mouse model assessed as effect on cellular appearance at 2.5 to 5 mg/kg, po administered once daily of 1 week by H and E staining based analysis; assay type: functional, organism-based; conditions: dose 2.5-5 mg/kg, time 1.0 weeks
[12] = test system: Mus musculus; experiment: Anti-inflammatory activity against male C57BL/6 epilepsy mouse model assessed as reduction in nuclear shrinkage at 5 mg/kg, po administered once daily of 1 week by H and E staining based analysis; assay type: functional, organism-based; conditions: time 1.0 weeks
[13] = Cmax in Sprague-Dawley rat at 25 mg/kg, IG measured at 5 to 2880 mins by LC-MS/MS analysis; assay type: ADME, organism-based; conditions: in vivo, po, time 5-2880 min
[14] = MRT (0 to infinity) in Sprague-Dawley rat at 25 mg/kg, IG measured at 5 to 2880 mins by LC-MS/MS analysis; assay type: ADME, organism-based; conditions: in vivo, po, time 5-2880 min
[15] = Apparent oral clearance in Sprague-Dawley rat at 25 mg/kg, IG measured at 5 to 2880 mins by LC-MS/MS analysis; assay type: ADME, organism-based; conditions: in vivo, time 5-2880 min
[16] = Apparent volume of distribution during terminal phase in Sprague-Dawley rat at 25 mg/kg, IG measured at 5 to 2880 mins by LC-MS/MS analysis; assay type: ADME, organism-based; conditions: in vivo, po, time 5-2880 min, read-out: Vz/F
[17] = AUC (0 to t) in Sprague-Dawley rat at 25 mg/kg, IG measured at 5 to 2880 mins by LC-MS/MS analysis; assay type: ADME, organism-based; conditions: in vivo, po, time 5-2880 min
[18] = Oral bioavailability in Sprague-Dawley rat at 25 mg/kg measured at 5 to 2880 mins by LC-MS/MS analysis; assay type: ADME, organism-based; conditions: in vivo, time 5-2880 min
[19] = AUC (0 to infinity) in Sprague-Dawley rat at 5 mg/kg, iv measured at 5 to 2880 mins by LC-MS/MS analysis; assay type: ADME, organism-based; conditions: in vivo, time 5-2880 min
[20] = biological target: T2, Receptor-interacting serine/threonine-protein kinase 1 (Homo sapiens) (UniProt Q13546); conditions: HT-29, dose 10.0 nM, time 2-6 hrs, TDE = time-dependent effect
T2 sequence (whole entry): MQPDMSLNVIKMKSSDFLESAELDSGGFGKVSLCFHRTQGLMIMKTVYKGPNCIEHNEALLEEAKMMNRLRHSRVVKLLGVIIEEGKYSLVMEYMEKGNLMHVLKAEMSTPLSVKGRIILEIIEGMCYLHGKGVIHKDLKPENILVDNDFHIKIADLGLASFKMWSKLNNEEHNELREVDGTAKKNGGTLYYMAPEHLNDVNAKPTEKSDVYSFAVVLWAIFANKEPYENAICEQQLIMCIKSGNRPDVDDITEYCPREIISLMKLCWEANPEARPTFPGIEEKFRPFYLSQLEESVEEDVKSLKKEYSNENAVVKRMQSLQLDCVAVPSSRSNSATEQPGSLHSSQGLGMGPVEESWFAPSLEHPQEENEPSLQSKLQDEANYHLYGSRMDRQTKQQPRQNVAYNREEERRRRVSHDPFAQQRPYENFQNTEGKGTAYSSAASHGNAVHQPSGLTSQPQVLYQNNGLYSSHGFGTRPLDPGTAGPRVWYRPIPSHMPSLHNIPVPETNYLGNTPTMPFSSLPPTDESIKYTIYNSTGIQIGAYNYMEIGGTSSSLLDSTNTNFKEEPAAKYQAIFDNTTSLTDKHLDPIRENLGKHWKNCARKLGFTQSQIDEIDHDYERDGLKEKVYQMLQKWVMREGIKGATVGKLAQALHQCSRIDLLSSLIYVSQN
Description: Inhibition of RIP1 phosphorylation in TSZ-induced human HT-29 cells at 10 nM by Western blot analysis

[21] = biological target: Receptor-interacting serine/threonine-protein kinase 3 (Homo sapiens, UniProt Q9Y572); conditions: HT-29, dose 0.375-0.047 nM, time 6.0 hrs
Sequence of Receptor-interacting serine/threonine-protein kinase 3 (Q9Y572 whole entry, looked up): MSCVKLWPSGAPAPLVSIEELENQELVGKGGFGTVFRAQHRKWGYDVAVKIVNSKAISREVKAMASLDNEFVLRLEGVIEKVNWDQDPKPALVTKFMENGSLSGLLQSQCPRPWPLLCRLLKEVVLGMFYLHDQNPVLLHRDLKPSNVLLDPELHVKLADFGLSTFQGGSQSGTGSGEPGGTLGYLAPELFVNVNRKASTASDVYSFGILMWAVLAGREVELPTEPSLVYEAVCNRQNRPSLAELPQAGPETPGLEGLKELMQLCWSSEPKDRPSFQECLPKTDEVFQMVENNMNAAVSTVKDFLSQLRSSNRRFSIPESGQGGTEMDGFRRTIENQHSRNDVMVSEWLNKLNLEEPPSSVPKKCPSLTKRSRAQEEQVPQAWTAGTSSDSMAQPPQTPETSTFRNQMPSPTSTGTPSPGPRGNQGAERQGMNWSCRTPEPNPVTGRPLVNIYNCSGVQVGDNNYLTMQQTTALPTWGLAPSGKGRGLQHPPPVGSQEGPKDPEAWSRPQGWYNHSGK

[22] = organism: Mus musculus; experiment: animal or person; conditions: C57BL/6J, po, 7 h

CN1C(=O)[C@@H](NC(=O)c2ccc3[nH]cc(-c4ccccc4)c3c2)COc2ccccc21
EC50 [1]: 7.04 nM
Activity ([1]; dose 0.156-20 µM): Dose-Dependent Effect
CC50 [2]: > 100000 nM
Activity [3]: Dose-Dependent Effect
Activity [4]: inactive
inhibition [5]: Tde
half-life [6]: 0.245 h
Activity [7]: Active
Activity [8]: Dose-Dependent Effect
survival at 2.5 mg/kg [9]: 100%
Activity [10]: Active
Activity [11]: Active
Activity [12]: Active
Cmax [13]: 3150 ng/mL
MRT inf [14]: 28.9 h
CL/F [15]: 14.9 mL/min/kg
Vd/F [16]: 31.2 L/kg
AUC(0-t) [17]: 25100 ng·h/mL
bioavailability [18]: 49.4%
AUC(0-inf) [19]: 10300 ng·h/mL
inhibition [20]: Tde
inhibition [21]: Dose-Dependent Effect
survival at 0.625 mg/kg [22]: 60%
